Earlier results, collected in patent US20150283242A1, “EFFECTIVE PHARMACEUTICAL CARRIER FOR POORLY BIOAVAILABLE DRUGS” (Hovid Berhad, priority 2007, published 2015).

log P (partition coefficient) | SMILES
2.42 | CC[C@H](C)C(=O)O[C@H]1C[C@H](O)C=C2C=C[C@H](C)[C@H](CC[C@@H](O)C[C@@H](O)CC(=O)O)[C@H]21 [pravastatin]
more than 10 | COC1=C(OC)C(=O)C(C/C=C(\C)CC/C=C(\C)CC/C=C(\C)CC/C=C(\C)CC/C=C(\C)CC/C=C(\C)CC/C=C(\C)CC/C=C(\C)CC/C=C(\C)CCC=C(C)C)=C(C)C1=O [ubiquonone]
4.77 | Cc1ccc(C)c(OCCCC(C)(C)C(=O)O)c1 [gemfibrozil]
4.27 | COc1ccc2c(c1)c(CC(=O)O)c(C)n2C(=O)c1ccc(Cl)cc1 [indomethacin]
